Several values for one entry are separate records, joined by “and”; a condition that tells them apart may be missing. Equal values may be shown once.
Assays:
Type in all cases: in vivo
[1] = tested on: Matricaria chamomilla (mayweed); test: Growth room pot test, post-emergence phytotoxicity on MATCH
Protocol: (§1) A simple mathematical method to test the additivity of a pesticide combination is based on the equation: [formula]
(§2) in which X and Y represent the percentage-of-inhibition of growth by toxicant A and B, respectively. E is the expected percentage-of-inhibition of growth by the mixture A and B. In order to show synergism, the actual efficacy should be higher than E.
(§3) The compounds were tested alone and in admixture with a co-herbicide, which was also tested alone, against the following weeds:
(§4) In the test procedure three replicate pots per treatment were randomly arranged through a growth room. The plants were treated about three weeks after planting and then submitted to a photoperiod of 14 hours per day; the temperature was 15 degrees Centigrade during the day and 9 degrees at night. All applications of test formulations were performed using a MARDRIVE sprayer, simulating as far as possible field conditions. The pressure was controlled at 2 bar and the water volume was 300 l/ha. The weed plants were at a true leaf stage between 0 to 6 leaves.
(§5) The results in the tables and figures are presented as average values of three replicates.

[2] = tested on: Veronica persica (common field speedwell); test: Growth room pot test, post-emergence phytotoxicity on VERPE
Protocol: as §1, §2
(§6) are formulated as suspension concentrates (SC) containing about 42% by weight of active ingredient.
as §3, §4
(§7) Assessment of phytotoxicity was made by comparison with untreated control pots on an arbitrary scale from 0 to 100%, where 0 represents no visible effect and 100 represents a kill of all plants. The results in the tables and figures are presented as average values of three replicates.

[3] = tested on: Lamium purpureum (red dead nettle); test: Growth room pot test, post-emergence phytotoxicity on LAMPU
Protocol: as §1, §2, §6, §3, §4, §7

[4] = tested on: Avena fatua (wild oats); test: Growth room pot test, post-emergence phytotoxicity on AVEFA
Protocol: as §1, §2, §3, §4, §5

[5] = tested on: Alopecurus myosuroides (black grass); test: Growth room pot test, post-emergence phytotoxicity on ALOMY
Protocol: as §1, §2, §3, §4, §5

[6] = tested on: Stellaria media (common chickweed); test: Growth room pot test, post-emergence phytotoxicity on STEME
Protocol: as §1, §2, §3, §4, §5

[7] = tested on: Galium aparine (bedstraw cleavers); test: Growth room pot test, post-emergence phytotoxicity on GALAP
Protocol: as §1, §2, §6, §3, §4, §7

[8] = tested on: weeds; test: Growth room pot test, overall synergy on the weeds; conditions: mixtures of sulfonylurea A or B with co-herbicide
Excerpt: It is generally admitted that, in case of synergism, the effectiveness of the mixture cannot be computed from that of the individual ingredients. Synergism is generally defined as the simultaneous action of two or more compounds in which the total response of an organism to the pesticide combination is greater that the sum of the individual components.
as §1, §2, §3
as §4, with “leaves. […]” for “leaves.”

CC(C)N(C(=O)SCC(Cl)=C(Cl)Cl)C(C)C [Triallate, triallate]
Phytotoxicity of herbicide alone ([1]; 1500 g/ha): 10% | Phytotoxicity of herbicide alone ([2]; 500 g/ha): 40% | Phytotoxicity of herbicide alone ([3]; 1500 g/ha): 50% | Phytotoxicity of herbicide alone ([4]; 1500 g/ha): 65% | Phytotoxicity of herbicide alone ([5]; 1500 g/ha): 50% | Phytotoxicity of herbicide alone ([6]; 1000 g/ha): 10%

Nc1c(Cl)c(F)nc(OCC(=O)O)c1Cl [Fluroxypyr, fluroxypyr]
Phytotoxicity of herbicide alone ([1]; 100 g/ha): 20% | Phytotoxicity of herbicide alone ([2]; 100 g/ha): 85% | Phytotoxicity of herbicide alone ([3]; 1000 g/ha): 50% | Phytotoxicity of herbicide alone ([7]; 50 g/ha): 70% | Phytotoxicity of herbicide alone ([4]; 100 g/ha): 0% | Phytotoxicity of herbicide alone ([5]; 100 g/ha): 0% | Phytotoxicity of herbicide alone ([6]; 100 g/ha): 60%

CCS(=O)(=O)c1nc2sccn2c1S(=O)(=O)NC(=O)Nc1nc(OC)cc(OC)n1 [SU - B]
Phytotoxicity of herbicide alone ([1]; 20 g/ha): 60% | Phytotoxicity of herbicide alone ([1]; 30 g/ha): 90% | Phytotoxicity of herbicide alone ([2]; 20 g/ha): 50% | Phytotoxicity of herbicide alone ([3]; 10 g/ha): 0% | Phytotoxicity of herbicide alone ([7]; 20 g/ha): 80% | Phytotoxicity of herbicide alone ([4]; 20 g/ha): 0% and 5% | Phytotoxicity of herbicide alone ([4]; 30 g/ha): 0% | Phytotoxicity of herbicide alone ([5]; 20 g/ha): 10% | Phytotoxicity of herbicide alone ([5]; 30 g/ha): 20% and 40% | Phytotoxicity of herbicide alone ([6]; 20 g/ha): 20% | Phytotoxicity of herbicide alone ([6]; 30 g/ha): 30%

imazamethabenz-methyl
Phytotoxicity of herbicide alone ([1]; 300 g/ha): 5% | Phytotoxicity of herbicide alone ([2]; 200 g/ha): 0% | Phytotoxicity of herbicide alone ([2]; 300 g/ha): 10% | Phytotoxicity of herbicide alone ([3]; 300 g/ha): 60% | Phytotoxicity of herbicide alone ([4]; 100 g/ha): 30% | Phytotoxicity of herbicide alone ([5]; 300 g/ha): 15% | Phytotoxicity of herbicide alone ([6]; 100 g/ha): 10%

CCC(CC)Nc1c([N+](=O)[O-])cc(C)c(C)c1[N+](=O)[O-] [Pendimethalin, pendimethalin]
Phytotoxicity of herbicide alone ([1]; 800 g/ha): 50% | Phytotoxicity of herbicide alone ([2]; 1200 g/ha): 90% | Phytotoxicity of herbicide alone ([3]; 400 g/ha): 70% | Phytotoxicity of herbicide alone ([7]; 1200 g/ha): 60% | Phytotoxicity of herbicide alone ([4]; 1200 g/ha): 0% | Phytotoxicity of herbicide alone ([5]; 800 g/ha): 10% | Phytotoxicity of herbicide alone ([6]; 800 g/ha): 0%

CCS(=O)(=O)c1nc2ccccn2c1S(=O)(=O)NC(=O)Nc1nc(OC)cc(OC)n1 [SU - A]
Phytotoxicity of herbicide alone ([1]; 10 g/ha): 70% and 40% | Phytotoxicity of herbicide alone ([1]; 20 g/ha): 90% and 45% | Phytotoxicity of herbicide alone ([1]; 30 g/ha): 70% | Phytotoxicity of herbicide alone ([2]; 10 g/ha): 30% and 20% | Phytotoxicity of herbicide alone ([2]; 20 g/ha): 70% and 50% | Phytotoxicity of herbicide alone ([7]; 20 g/ha): 60% | Phytotoxicity of herbicide alone ([4]; 10 g/ha): 0% | Phytotoxicity of herbicide alone ([4]; 30 g/ha): 0% and 10% | Phytotoxicity of herbicide alone ([5]; 10 g/ha): 10% and 0% | Phytotoxicity of herbicide alone ([5]; 20 g/ha): 0% | Phytotoxicity of herbicide alone ([6]; 10 g/ha): 70% and 50% | Phytotoxicity of herbicide alone ([6]; 20 g/ha): 60% | Phytotoxicity of herbicide alone ([6]; 30 g/ha): 65% and 55%

CC(C)c1ccc(NC(=O)N(C)C)cc1 [Isoproturon, isoproturon]
Phytotoxicity of herbicide alone ([2]; 500 g/ha): 0% | Phytotoxicity of herbicide alone ([3]; 500 g/ha): 25% | Phytotoxicity of herbicide alone ([7]; 500 g/ha): 0% | Phytotoxicity of herbicide alone ([4]; 1000 g/ha): 0% | Phytotoxicity of herbicide alone ([5]; 1000 g/ha): 0% | Phytotoxicity of herbicide alone ([6]; 500 g/ha): 0%

CCOC(=O)[C@@H](C)Oc1ccc(Oc2nc3ccc(Cl)cc3o2)cc1 [fenoxaprop-P-ethyl]
Synergistic effect on the weeds (observed higher than expected) [8]: synergized

Cn1c(-c2ccccc2)cc(-c2ccccc2)[n+]1C [Difenzoquat, difenzoquat]
Phytotoxicity of herbicide alone ([2]; 200 g/ha): 0% | Phytotoxicity of herbicide alone ([3]; 600 g/ha): 5% | Phytotoxicity of herbicide alone ([4]; 600 g/ha): 60% | Phytotoxicity of herbicide alone ([5]; 600 g/ha): 5% | Phytotoxicity of herbicide alone ([6]; 400 g/ha): 0%

From patent US6455470B1, “Herbicidal compositions” (priority 1994, dated 2002)
